In the supplement of paper PMC10307832:

Legend:
Assay in all cases: relative viability (nuclei count vs DMSO), 5 days (fraction); higher = more cells survive
[1] = compound: O=C(C[C@H]1NCCC[C@@H]1O)Cn1cnc2cc(Br)c(Cl)cc2c1=O (racemic) [Halofuginone] + CS(=O)(=O)N1CCN(Cc2cc3nc(-c4cccc5[nH]ncc45)nc(N4CCOCC4)c3s2)CC1 [Pictilisib] (partner 1 µM)
How it was run: (§1)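 After 5 days of treatment, lung cancer cells in 1536-well plates were fixed and stained in a single step (final 0.05% Triton X-100, 1% formaldehyde, 1 ug/ml Hoechst) and their nuclei counted on 4× images. Treatment had been applied by pin tool the day after seeding as one drug alone or as a fixed anchor-drug dose with five library-drug doses (not always all listed) in √10 steps. Relative viability is the nuclei count of treated wells divided by that of vehicle wells, and values are medians of duplicate plates.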

Cediranib + Foretinib = compound: COc1cc2c(Oc3ccc4[nH]c(C)cc4c3F)ncnc2cc1OCCCN1CCCC1 [Cediranib] + COc1cc2c(Oc3ccc(NC(=O)C4(C(=O)Nc5ccc(F)cc5)CC4)cc3F)ccnc2cc1OCCCN1CCOCC1 [Foretinib] (partner 0.25 µM)
How it was run: as §1

Decitabine + Luminespib = compound: Nc1ncn([C@H]2C[C@H](O)[C@@H](CO)O2)c(=O)n1 [Decitabine] + CCNC(=O)c1noc(-c2cc(C(C)C)c(O)cc2O)c1-c1ccc(CN2CCOCC2)cc1 [Luminespib] (partner 0.01 µM)
How it was run: as §1

Cediranib + Pictilisib = compound: COc1cc2c(Oc3ccc4[nH]c(C)cc4c3F)ncnc2cc1OCCCN1CCCC1 [Cediranib] + CS(=O)(=O)N1CCN(Cc2cc3nc(-c4cccc5[nH]ncc45)nc(N4CCOCC4)c3s2)CC1 [Pictilisib] (partner 1 µM)
How it was run: as §1

Row | Cell Line | relative viability ([1]; first compound 0.001 µM) | relative viability ([1]; first compound 0.003162 µM) | relative viability ([1]; first compound 0.01 µM) | relative viability ([1]; first compound 0.03162 µM) | relative viability ([1]; first compound 0.1 µM) | relative viability (Cediranib + Foretinib; first compound 0.04 µM) | relative viability (Cediranib + Foretinib; first compound 0.1265 µM) | relative viability (Cediranib + Foretinib; first compound 0.4 µM) | relative viability (Cediranib + Foretinib; first compound 1.265 µM) | relative viability (Cediranib + Foretinib; first compound 4 µM) | relative viability (Decitabine + Luminespib; first compound 0.04 µM) | relative viability (Decitabine + Luminespib; first compound 0.1265 µM) | relative viability (Decitabine + Luminespib; first compound 0.4 µM) | relative viability (Decitabine + Luminespib; first compound 1.265 µM) | relative viability (Decitabine + Luminespib; first compound 4 µM) | relative viability (Cediranib + Pictilisib; first compound 0.04 µM) | relative viability (Cediranib + Pictilisib; first compound 0.1265 µM) | relative viability (Cediranib + Pictilisib; first compound 0.4 µM) | relative viability (Cediranib + Pictilisib; first compound 1.265 µM) | relative viability (Cediranib + Pictilisib; first compound 4 µM)
1 | NCI-H322M | 0.484 | 0.514 | 0.489 | 0.486 | 0.502 | 1.15 | 1.04 | 0.946 | 0.912 | 0.922 | 0.77 | 0.835 | 0.669 | 0.441 | 0.489 | 0.52 | 0.698 | 0.533 | 0.467 | 0.521
2 | NCI-H1666 | 0.483 | 0.357 | 0.443 | 0.406 | 0.323 | 0.972 | 1.01 | 0.916 | 0.945 | 1 | 0.927 | 0.964 | 0.815 | 0.674 | 0.726 | 0.383 | 0.475 | 0.422 | 0.5 | 0.431
3 | NCI-H1563 | 0.671 | 0.644 | 0.685 | 0.588 | 0.575 | 0.976 | 1.09 | 0.908 | 0.958 | 0.936 | 0.564 | 0.508 | 0.428 | 0.545 | 0.495 | 0.727 | 0.576 | 0.711 | 0.66 | 0.595
4 | NCI-H1793 | 0.329 | 0.216 | 0.33 | 0.381 | 0.228 | 0.758 | 0.931 | 0.698 | – | 0.672 | 0.154 | 0.212 | 0.19 | 0.176 | 0.213 | 0.404 | 0.294 | 0.345 | – | 0.299
5 | NCI-H1437 | 0.429 | 0.536 | 0.414 | 0.402 | 0.24 | 1.34 | 1.22 | 1.24 | 1.25 | 1.32 | 0.995 | 0.825 | 0.633 | 0.445 | 0.372 | 0.484 | 0.413 | 0.442 | 0.228 | 0.499
6 | NCI-H358 | 0.364 | 0.351 | 0.359 | 0.245 | 0.196 | 0.712 | 0.809 | 0.677 | 0.616 | 0.763 | 0.073 | 0.206 | 0.247 | 0.199 | 0.1 | 0.323 | 0.462 | 0.314 | 0.271 | 0.404
7 | NCI-H1355 | 0.444 | 0.424 | 0.458 | 0.501 | 0.376 | 0.991 | 1.02 | 0.894 | 0.948 | 1.09 | 0.538 | 0.483 | 0.454 | 0.298 | 0.258 | 0.392 | 0.273 | 0.41 | 0.263 | 0.476
8 | SK-LU-1 | 0.766 | 0.633 | 0.557 | 0.493 | 0.415 | 0.945 | 0.825 | 0.725 | 0.876 | 0.972 | 0.18 | 0.212 | 0.196 | 0.204 | 0.208 | 0.632 | 0.796 | 0.54 | 0.497 | 0.498
9 | NCI-H2228 | 0.355 | 0.455 | 0.398 | 0.224 | 0.095 | 0.986 | 0.882 | 0.761 | 0.838 | 0.99 | 0.102 | 0.134 | 0.116 | 0.148 | 0.165 | 0.522 | 0.504 | 0.459 | 0.288 | 0.557
10 | NCI-H2170 | 0.311 | 0.313 | 0.313 | 0.32 | 0.26 | 1.02 | 0.987 | 0.931 | 1.01 | 1.12 | 0.645 | 0.641 | 0.488 | 0.286 | 0.253 | 0.259 | 0.275 | 0.306 | 0.254 | 0.301
11 | NCI-H2347 | 0.759 | 0.636 | 0.445 | 0.699 | 0.374 | 0.918 | 1.03 | 0.996 | 0.833 | 0.957 | 0.472 | 0.393 | 0.515 | 0.453 | 0.36 | 0.592 | – | 0.742 | 0.516 | 0.444
12 | A-427 | 0.683 | 0.749 | 0.73 | 0.756 | 0.66 | 1.12 | – | 0.948 | 0.925 | 0.942 | 0.65 | 0.466 | 0.303 | 0.262 | 0.227 | 0.716 | – | 0.608 | 0.573 | 0.707
13 | PC-14 | 0.573 | 0.635 | 0.5 | 0.262 | 0.037 | 1.04 | 1.08 | 0.861 | 0.997 | 0.928 | 0.145 | 0.227 | 0.173 | 0.168 | 0.131 | 0.826 | 0.918 | 0.487 | 0.438 | 0.652
14 | NCI-H2087 | 0.986 | 1.01 | 0.799 | 1 | 0.831 | 1.19 | 1.06 | 0.944 | 1.15 | 1.29 | 0.172 | 0.175 | 0.204 | 0.135 | 0.158 | 0.921 | 0.763 | 0.825 | 0.752 | 0.935
15 | HOP-62 | 0.661 | 0.781 | 0.766 | 0.53 | 0.239 | 1.3 | 1.15 | 1.1 | 1.15 | 1.22 | 0.488 | 0.342 | 0.21 | 0.187 | 0.209 | 0.813 | – | 0.578 | 0.413 | 1.16
